# Results reported in PubChem BioAssay AID624439 (The Scripps Research Institute Molecular Screening Center, 2012).
# Active and inactive are the calls of the source.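 How the source made its calls: active means compounds with an IC50 below 50 µM against the phosphatase; inactive means IC50 at 50 µM or above.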
# Target: Serine/threonine-protein phosphatase 5 (Homo sapiens) (UniProt P53041)
# Experiment: inhibition of PP5 catalytic domain, physiologic substrate – biochemical, radiolabeled phosphohistone, dose response, round 5, orthogonal assay, late-stage follow-up (AID 624439)
# Conditions: purified PP5c, 33P-phosphohistone dephosphorylation, scintillation
# Serine/threonine-protein phosphatase 5 (Homo sapiens), sequence (P53041 whole entry, looked up, the tested form may be a part): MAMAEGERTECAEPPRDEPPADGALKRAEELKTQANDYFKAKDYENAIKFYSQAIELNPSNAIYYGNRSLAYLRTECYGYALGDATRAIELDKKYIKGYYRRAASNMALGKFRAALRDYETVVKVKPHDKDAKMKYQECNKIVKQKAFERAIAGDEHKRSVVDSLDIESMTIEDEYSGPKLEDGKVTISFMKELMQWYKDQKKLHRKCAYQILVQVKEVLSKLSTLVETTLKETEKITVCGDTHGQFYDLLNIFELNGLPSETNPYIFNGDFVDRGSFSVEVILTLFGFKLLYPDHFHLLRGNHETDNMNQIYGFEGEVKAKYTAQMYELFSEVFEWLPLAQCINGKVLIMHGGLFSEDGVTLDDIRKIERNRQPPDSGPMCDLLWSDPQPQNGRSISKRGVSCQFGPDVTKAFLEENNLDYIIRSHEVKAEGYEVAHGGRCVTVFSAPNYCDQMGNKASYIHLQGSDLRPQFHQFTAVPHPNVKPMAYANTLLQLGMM
row,SMILES,IC50
1,COc1cccc(-c2n[nH]nc2C(=O)O)c1,49 µM
2,COc1ccc(-c2n[nH]nc2C(=O)O)cc1,inactive
3,O=C(O)c1n[nH]nc1-c1ccccc1F,42.2 µM
4,CC(C)Oc1ccccc1-c1n[nH]nc1C(=O)O,17.1 µM
5,O=C(O)c1n[nH]nc1-c1ccc(F)cc1,inactive
6,O=C(O)c1n[nH]nc1-c1cccc(F)c1,inactive

# Continued, values first:
row,IC50,SMILES
1,31.4 µM,O=C(O)c1n[nH]nc1-c1ccccc1O
2,29.7 µM,COc1ccccc1-c1n[nH]nc1C(=O)O
